{"source": "paper PMC5490407", "about": "“Chiral Derivatives of Xanthones: Investigation of the Effect of Enantioselectivity on Inhibition of Cyclooxygenases (COX-1 and COX-2) and Binding Interaction with Human Serum Albumin” (Pharmaceuticals, 2017)", "key": {"[1]": {"target": "T1, HSA (Homo sapiens, UniProt P02768)", "T1 construct": "purchased Sigma-Aldrich", "T1 sequence (P02768 25-609)": "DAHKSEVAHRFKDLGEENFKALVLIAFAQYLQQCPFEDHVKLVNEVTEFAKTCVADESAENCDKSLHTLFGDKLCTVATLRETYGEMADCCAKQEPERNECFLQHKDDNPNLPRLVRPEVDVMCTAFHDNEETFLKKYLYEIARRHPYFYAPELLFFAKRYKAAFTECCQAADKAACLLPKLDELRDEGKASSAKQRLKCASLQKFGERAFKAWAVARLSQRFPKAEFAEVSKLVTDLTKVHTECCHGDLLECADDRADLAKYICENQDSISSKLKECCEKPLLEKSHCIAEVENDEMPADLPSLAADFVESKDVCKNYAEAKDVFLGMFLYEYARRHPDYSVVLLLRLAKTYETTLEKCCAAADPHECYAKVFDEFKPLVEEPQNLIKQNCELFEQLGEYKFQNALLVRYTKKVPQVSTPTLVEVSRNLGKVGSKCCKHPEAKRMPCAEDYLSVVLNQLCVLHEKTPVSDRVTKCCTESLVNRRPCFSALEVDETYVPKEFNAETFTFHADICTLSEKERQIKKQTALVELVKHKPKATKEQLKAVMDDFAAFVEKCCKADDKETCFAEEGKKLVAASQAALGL", "experiment": "Interaction with human serum albumin by fluorescence quenching", "format": "binding", "settings": "for Ymax, maximum percentage of HSA fluorescence quenching / Kd: HSA 2 µM, pH 7.4, 25 °C; for Ymax, maximum percentage of HSA fluorescence quenching / Kd / ∆G Binding: mean ± standard deviation of triplicate runs; for Kd: read-out: Kd, dissociation constant of CDX-HSA; for ∆G Binding: HSA binding", "method": "Evaluation of the binding of CDXs to HSA was based on the quenching of HSA intrinsic fluorescence. Phosphate buffer consisting of 7.5 mM Na2HPO4, 1.5 mM KH2PO4 and 140 mM NaCl (pH 7.4) was used in the preparation of CDX solutions. Solutions of HSA fraction V (Sigma-Aldrich, St. Louis, MO, USA) were prepared in water. Briefly, 500 µL of HSA (fixed final concentration 2 µM), increasing volumes of drug solution (n = 13, 0–200 µM) and phosphate buffer solution (pH 7.4) were mixed to a final volume of 1500 µL. The corresponding blank solutions were identically prepared and analysed in the absence of the drug. Fluorescence emission spectra were recorded in the range of 300–450 nm upon excitation at 295 nm. Excitation spectra were also recorded between 220 and 310 nm with emission set at 330 nm. For individual measurements, excitation and emission wavelength were set at 295 nm and 330 nm, respectively. For each measurement, fluorescence emission was automatically acquired during 180 s (5 nm bandwidth). For all compounds, UV-vis absorption spectra (200–500 nm) were recorded. These measurements were used to correct the fluorescence intensity values due to inner filter effects at the excitation wavelength. All experiments were performed at room temperature (25 ± 1 °C). Fluorescence and absorbance measurement were performed in a LS-50B spectrometer (Perkin Elmer, Waltham, MA, USA) and a V-660 spectrophotometer (Jasco, Easton, MD, USA) respectively.\nHSA-CDX binding parameters were calculated using the Origin 8.5.1 software (8.5.1, Northampton, MA, USA). The fitting of the experimental values was made according to the Langmuir binding equation (Equation (1)) to calculate HSA binding parameters: (1) [HSA−CDX]=[HSA]/1+ Kd/[CDX] where [HSA], [CDX] and [HSA-CDX] are given in μM and Kd corresponds to the dissociation constant of HSA-CDX complexes.\nIn terms of fluorescence quenching mediated by the compound, the previous Langmuir isotherm can be rewritten as follows (Equation (2)):(2) %quenching=ymax^n/1+ Kd/[CDX] where ymax corresponds to the highest percentage of quenching induced by a given compound and n accounts for the number of biding sites of the enzyme to the CDX. Finally, free Gibbs energy (ΔG) was also determined for all the interactions."}, "[2]": {"target": "T2, COX-1 (Ovis aries, UniProt P05979)", "T2 construct": "purchased Cayman Chemical", "T2 sequence (P05979 25-600)": "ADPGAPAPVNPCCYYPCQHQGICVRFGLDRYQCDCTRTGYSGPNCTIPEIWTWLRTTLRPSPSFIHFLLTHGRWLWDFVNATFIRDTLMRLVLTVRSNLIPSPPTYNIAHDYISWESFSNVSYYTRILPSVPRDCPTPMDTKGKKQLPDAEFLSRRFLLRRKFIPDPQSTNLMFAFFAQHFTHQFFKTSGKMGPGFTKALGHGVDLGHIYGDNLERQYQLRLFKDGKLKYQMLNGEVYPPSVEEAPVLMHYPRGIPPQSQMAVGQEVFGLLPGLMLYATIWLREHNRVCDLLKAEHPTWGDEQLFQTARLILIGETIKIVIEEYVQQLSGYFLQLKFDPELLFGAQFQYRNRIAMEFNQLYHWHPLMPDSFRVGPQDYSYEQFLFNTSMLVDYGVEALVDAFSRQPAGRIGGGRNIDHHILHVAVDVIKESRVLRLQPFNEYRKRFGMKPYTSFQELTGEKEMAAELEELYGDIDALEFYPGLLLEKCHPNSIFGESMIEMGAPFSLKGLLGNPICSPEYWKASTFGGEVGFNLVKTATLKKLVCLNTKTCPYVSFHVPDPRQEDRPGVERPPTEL", "experiment": "COX Inhibitor Screening Assay Kit, COX-1 inhibition", "format": "biochemical, ovine", "settings": "CDXs 20 µmol/L; mean ± standard deviation, triplicate in two independent days", "method": "(§1) The effect of CDXs previously obtained in our group as inhibitors of membrane located enzymes that might be involved in inflammatory processes, namely COX-1 and COX-2, was evaluated. Three enantiomeric pairs of CDXs were chosen to study the inhibitory effect of both enantiomers of each pair face to biological targets in order to evaluate potency and enantioselectivity. The effect on COXs activity was studied by spectrofluorimetry using a commercial kit measuring the peroxidation activity of COXs. The kit includes isoenzyme-specific inhibitors for distinguishing COX-1 from COX-2 activities.\n(§2) The evaluation of the inhibition of COX-1 and COX-2 by CDXs was conducted using the commercially available COX (ovine/human) Inhibitor Screening Assay Kit (Cayman Chemical, Michigan, MI, USA). Briefly, the assay implies an enzymatic immunoassay based on the competition between prostaglandins (PGs) and a PG-acetylcholinesterase (AChE) conjugate (PG tracer), which is then evaluated by the addition of Ellman’s reagent. All the solutions required for the experiment were prepared according to the manufacturer’s instructions. Each compound was analysed in two independent days, in triplicate. CDX working solutions were prepared in DMSO to a final concentration of 20 µM. […] Absorbance measurements at 412 nm were performed in a Synergy HT microplate reader (Bio-Tek Instruments, Winooski, VT, USA) operated with Gen5 software (Bio-Tek Instruments)."}, "[3]": {"target": "T3, COX-2 (Homo sapiens, UniProt P35354)", "T3 construct": "purchased Cayman Chemical", "T3 sequence (P35354 18-604)": "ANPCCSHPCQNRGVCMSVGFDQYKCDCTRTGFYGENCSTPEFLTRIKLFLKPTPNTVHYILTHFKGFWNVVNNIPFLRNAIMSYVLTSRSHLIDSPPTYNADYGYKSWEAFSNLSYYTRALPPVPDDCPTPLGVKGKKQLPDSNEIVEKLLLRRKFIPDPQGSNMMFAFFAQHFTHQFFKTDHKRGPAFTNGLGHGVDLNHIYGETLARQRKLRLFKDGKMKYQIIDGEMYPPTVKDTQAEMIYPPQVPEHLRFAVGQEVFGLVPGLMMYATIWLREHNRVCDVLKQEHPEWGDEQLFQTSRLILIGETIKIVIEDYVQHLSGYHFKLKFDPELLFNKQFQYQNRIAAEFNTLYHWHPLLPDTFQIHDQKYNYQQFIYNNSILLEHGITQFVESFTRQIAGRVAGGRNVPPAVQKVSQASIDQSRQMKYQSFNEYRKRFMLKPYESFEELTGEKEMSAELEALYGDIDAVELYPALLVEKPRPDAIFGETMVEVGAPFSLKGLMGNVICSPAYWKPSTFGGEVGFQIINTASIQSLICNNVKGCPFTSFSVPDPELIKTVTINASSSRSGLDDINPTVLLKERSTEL", "experiment": "COX Inhibitor Screening Assay Kit, COX-2 inhibition", "format": "biochemical", "settings": "for percentage of enzyme inhibition, COX-2: CDXs 20 µmol/L, mean ± standard deviation, triplicate in two independent days", "method": "as §1, §2"}}, "data": [{"smiles": "COc1ccc2c(=O)c3cc(C(=O)N[C@@H](CO)C(C)C)ccc3oc2c1", "note": "[(R)-(+)-CDX2]", "values": [{"measurement": "Ymax, maximum percentage of HSA fluorescence quenching", "setting": "[1]", "result": "108.2 ± 0.2", "unit": "%"}, {"measurement": "Kd", "setting": "[1]", "result": "29.2 ± 0.9", "unit": "µM"}, {"measurement": "∆G Binding", "setting": "[1]", "result": "-2.0 ± 0.1", "unit": "kcal/mol"}, {"measurement": "percentage of enzyme inhibition, COX-1", "setting": "[2]", "result": "66.8 ± 1.6", "unit": "%"}, {"measurement": "percentage of enzyme inhibition, COX-2", "setting": "[3]", "result": "73.2 ± 0.4", "unit": "%"}, {"measurement": "enzyme-type selectivity COX-2 vs COX-1", "setting": "[3]; paired t-test, p < 0.05", "result": "more active at inhibiting COX-2 than COX-1"}]}, {"smiles": "COc1ccc2c(=O)c3cc(C(=O)N[C@@H](CO)c4ccccc4)ccc3oc2c1", "note": "[(R)-(+)-CDX1]", "values": [{"measurement": "Ymax, maximum percentage of HSA fluorescence quenching", "setting": "[1]", "result": "109.6 ± 1.6", "unit": "%"}, {"measurement": "Kd", "setting": "[1]", "result": "61.8 ± 6.5", "unit": "µM"}, {"measurement": "percentage of enzyme inhibition, COX-1", "setting": "[2]", "result": "79.6 ± 5.0", "unit": "%"}, {"measurement": "percentage of enzyme inhibition, COX-2", "setting": "[3]", "result": "84.7 ± 5.7", "unit": "%"}]}, {"smiles": "COc1ccc2c(=O)c3cc(C(=O)NC(CO)c4ccccc4)ccc3oc2c1", "note": "(stereo not shown) [CDX1]", "values": [{"measurement": "difference in HSA binding affinity between (S)- and (R)-enantiomers", "setting": "[1]; (S)-enantiomer higher affinity than (R)-enantiomer", "result": "ca. 2.6 fold"}]}, {"smiles": "COc1ccc2c(=O)c3cc(C(=O)N[C@H](CO)C(C)C)ccc3oc2c1", "note": "[(S)-(−)-CDX2]", "values": [{"measurement": "Ymax, maximum percentage of HSA fluorescence quenching", "setting": "[1]", "result": "107.4 ± 5.4", "unit": "%"}, {"measurement": "Kd", "setting": "[1]", "result": "24.7 ± 1.1", "unit": "µM"}, {"measurement": "percentage of enzyme inhibition, COX-1", "setting": "[2]", "result": "82.9 ± 5.2", "unit": "%"}, {"measurement": "percentage of enzyme inhibition, COX-2", "setting": "[3]", "result": "85.7 ± 4.5", "unit": "%"}]}, {"smiles": "COc1ccc2c(=O)c3cc(C(=O)N[C@H](C)CO)ccc3oc2c1", "note": "[(R)-(−)-CDX3]", "values": [{"measurement": "Ymax, maximum percentage of HSA fluorescence quenching", "setting": "[1]", "result": "113.2 ± 1.4", "unit": "%"}, {"measurement": "Kd", "setting": "[1]", "result": "26.4 ± 1.2", "unit": "µM"}, {"measurement": "percentage of enzyme inhibition, COX-1", "setting": "[2]", "result": "75.2 ± 9.0", "unit": "%"}, {"measurement": "percentage of enzyme inhibition, COX-2", "setting": "[3]", "result": "75.1 ± 7.2", "unit": "%"}]}, {"smiles": "COc1ccc2c(=O)c3cc(C(=O)N[C@@H](C)CO)ccc3oc2c1", "note": "[(S)-(+)-CDX3]", "values": [{"measurement": "Ymax, maximum percentage of HSA fluorescence quenching", "setting": "[1]", "result": "116.2 ± 0.6", "unit": "%"}, {"measurement": "Kd", "setting": "[1]", "result": "31.4 ± 2", "unit": "µM"}, {"measurement": "∆G Binding", "setting": "[1]", "result": "-2.0 ± 0.2", "unit": "kcal/mol"}, {"measurement": "percentage of enzyme inhibition, COX-1", "setting": "[2]", "result": "91.7 ± 10.7", "unit": "%"}, {"measurement": "percentage of enzyme inhibition, COX-2", "setting": "[3]", "result": "93.4 ± 11.4", "unit": "%"}]}, {"smiles": "COc1ccc2c(=O)c3cc(C(=O)N[C@H](CO)c4ccccc4)ccc3oc2c1", "note": "[(S)-(−)-CDX1]", "values": [{"measurement": "Ymax, maximum percentage of HSA fluorescence quenching", "setting": "[1]", "result": "105.3 ± 0.4", "unit": "%"}, {"measurement": "Kd", "setting": "[1]", "result": "23.6 ± 0.8", "unit": "µM"}, {"measurement": "percentage of enzyme inhibition, COX-1", "setting": "[2]", "result": "87.6 ± 2.1", "unit": "%"}, {"measurement": "percentage of enzyme inhibition, COX-2", "setting": "[3]", "result": "80.1 ± 12.8", "unit": "%"}]}]}
